Laboratory results as given in paper PMC10125213 (Journal of Molecular Biology, 2023).
Where two headings read alike, the source gives them in different places.

How the values were obtained:
WT S protein = WT S protein (Severe acute respiratory syndrome coronavirus 2, UniProt P0DTC2); experiment: biochemical; format: binding
WT RBD = WT RBD (Severe acute respiratory syndrome coronavirus 2, UniProt P0DTC2); format: binding

## N[C@@H](CCC(=O)N[C@@H](CS)C(=O)NCC(=O)O)C(=O)O [GSH, reduced glutathione]
WT S protein
  effects on WT S protein: did not exhibit any effects

## CC(=O)N[C@@H](CS)C(=O)O [NAC, N-acetylcysteine]
WT S protein; 37 °C 60 min
  effects on WT S protein: did not exhibit any effects

## O=C(O)CCP(CCC(=O)O)CCC(=O)O [TCEP, tris-(2-carboxyethyl)phosphine]
WT RBD
  effect on WT RBD: marginal effect

## NCCCNCCS [WR1065]
WT S protein; IC50, 37 °C 60 min
  IC50: 1 to 10 mM
